Data: patent publication US20260174856A1, “USE OF HETEROARYLOXYNAPHTHALENE COMPOUND” (SHANGHAI RUNSHI MEDICAL TECHNOLOGY CO., LTD, priority 2022, published 2026)

Assays:
[1] = Water sorption and desorption experiment (DVS hygroscopicity); assay type: physicochemical; settings: relative humidity 40%-80%, 25° C.
Method: Instrument: DVS Intrinsic Plus (SMS, UK).
Method: a sample was placed in a tared sample basket, the weight of the sample was automatically measured, and the sample was analyzed according to the parameters in the table below.
The samples obtained in Example 2 and Example 3 were investigated for sorption and desorption of moisture under the relative humidity of 40%-80% at 25° C. using a dynamic vapor sorption (DVS) instrument to determine the hygroscopicity of various salt forms.

[2] = Solid stability experiment; assay type: physicochemical; settings: for Crystalline form: XRPD, initial crystalline form I
Method: The sample obtained in Example 2 was investigated for physical stability and chemical stability under the conditions of 40° C./75% RH (open) and 60° C. (sealed) for 7 days, and for physical stability under the conditions of room temperature/92.5% RH (open) for 10 days.
Note: the “/” indicates undetected; the crystalline form results were obtained using the X-ray powder diffraction method.

[3] = Grinding stability experiment; assay type: physicochemical; settings: XRPD
[4] = system: esophageal squamous cell carcinoma; assay: Phase I clinical trial, effectiveness evaluation; assay type: in vivo, human
Source text: ORR: the percentage of subjects with complete remission (CR) and partial remission (PR) among all enrolled subjects from the date of the first dose.
DCR: defined as the percentage of subjects with CR, PR, or stable disease (SD) among all enrolled subjects from the date of the first dose.
PR: refers to partial remission, meaning that the sum of the diameters of target lesions has reduced by at least 30% compared to the baseline level.
(§1) Drug: Compound B, tablets.
(§2) 1.1 Inclusion criteria: The main criteria include: (1) an age of 18-70 years old (including 18 years old and 70 years old) when signing an informed consent form; (2) patients with histopathologically or cytologically confirmed unresectable locally advanced or metastatic solid tumors, who have failed or are intolerant to standard treatments, or have no standard treatment regimens available as options; (3) the presence of at least one measurable lesion meeting RECIST v1.1 definition; (4) ECOG performance status (PS) score: 0-1; and so on.
(§3) (1) Dose escalation stage: initial doses: 1 mg, 2 mg, 4 mg, 6 mg, 9 mg, 12 mg, 16 mg, 20 mg, and 25 mg, administered orally once daily. After 7-days single administration stage, 28-days multiple administration stage began (continuous administration, with every 28 days constituting one cycle, until progressive disease or intolerable toxic reactions occurred). The subjects who had completed the treatment and observation for the 7-days single administration stage and the first cycle of the 28-days multiple administration stage, and who had acquired clinical benefit and could tolerate the drug treatment, could enter an extended treatment period based on their willingness. In the extended treatment period, every 4 weeks constituted one cycle.
(§4) (2) Dose expansion stage: 4 mg and 6 mg, administered orally once daily. For the continuous administration group, every 4 weeks constituted 1 cycle; for the group of 3-week administration and then 1-week interruption, every 4 weeks constituted one cycle; for the group of 2-week administration and then 1-week interruption, every 3 weeks constituted 1 cycle.
(§5) 1.3 Assessment of results: (1) Effectiveness evaluation: In this study, for the dose escalation stage, efficacy evaluation and data analysis were performed at the 4th week, 8th week and 12th week after the first day of the 28-days multiple administration stage and then every 8 weeks thereafter. […]

[5] = system: nasopharyngeal squamous cell carcinoma; assay: Phase I clinical trial, effectiveness evaluation; assay type: in vivo, human
Source text: as §1, §2, §3, §4
(§6) 1.3 Assessment of results: (1) Effectiveness evaluation: In this study, for the dose escalation stage, efficacy evaluation and data analysis were performed at the 4th week, 8th week and 12th week after the first day of the 28-days multiple administration stage and then every 8 weeks thereafter. For the dose expansion stage, efficacy evaluation on the group of 3-week administration and then 1-week interruption was performed at the 4th week, 8th week and 12th week after the first day of the 28-days multiple administration stage and then every 8 weeks thereafter; efficacy evaluation on the group of 2-week administration and then 1-week interruption was performed every 6 weeks after the first day of the 28-days multiple administration stage. The indicators of effectiveness include objective response rate (ORR), progression-free survival (PFS), overall survival (OS), disease control rate (DCR), and duration of response (DOR). (2) Safety evaluation: including evaluation of vital signs and physical examinations, electrocardiograms, ECOG PS scores, laboratory tests, adverse events, and the like.

[6] = system: pulmonary squamous cell carcinoma; assay: Phase I clinical trial, effectiveness evaluation; assay type: in vivo, human
Source text: as §1, §2, §3, §4, §6

[7] = Phase I clinical trial, safety evaluation; assay type: in vivo, human; settings: monotherapy, patients with solid tumors
Source text: as §1, §2, §3, §4, §5

Solubility experiment = settings: for Solubility: deionized water, 25° C.
[8] = 40° C./75% RH (open) for 7 days
[9] = of 41 patients with esophageal squamous cell carcinoma

With `CNC(=O)c1cccc2cc(Oc3ccnc(NC(=O)c4ccc(N5C[C@@H](C)N[C@@H](C)C5)cc4)c3)ccc12` [Compound B] the Hygroscopicity [1] was 0.65%, the “Hygroscopicity (words)” value [1] was “slightly hygroscopic” and the Purity [2, 8] was 99.86%. For the same molecule, the Crystalline form [2, 8] was “Not changed”, the “Chemical stability” value ([2]; 40° C./75% RH and 60° C. for 7 days) was “good chemical stability” and the “Physical stability of crystalline form I” value ([2]; 40° C./75% RH, 60° C. for 7 days, 92.5% RH for 10 days) was “good physical stability”. The Purity ([2]; 60° C. (sealed) for 7 days) was 99.85%, the Crystalline form ([2]; 60° C. (sealed) for 7 days) was “Not changed” and the Purity ([2]; initial state, 0 day) was 99.85%. For the same molecule, the Crystalline form ([2]; room temperature/92.5% RH (open) for 10 days) was “Not changed”, the “Crystalline form I after grinding” value ([3]; mechanically ground after dropwise addition of organic solvent (methanol, ethanol, acetone, acetonitrile, ethyl acetate, etc.)) was “not changed” and the “Crystalline form I after grinding” value ([3]; mechanically ground using a mortar for 2 min) was “not changed”. For the same molecule, the “Crystalline form I after grinding” value ([3]; mechanically ground using a mortar for 5 min) was “not changed”, the “Response as of the latest assessment” value ([4]; Subject S03008, 6 mg QD continuous, in the 18th treatment cycle) was “remains in PR” and the “Cases achieving PR” value [4, 9] was 6 cases. For the same molecule, the “Cases achieving SD” value [4, 9] was 21 cases, the “Cases of SD showing target lesion reduction” value ([4]; of 41 patients with esophageal squamous cell carcinoma (21 SD)) was 11 cases and the “Target lesion reduction in SD case” value ([5]; 1 SD case of 2 patients with nasopharyngeal squamous cell carcinoma) was “also showed target lesion reduction”. The “Maximum reduction in the target lesion” value ([5]; Subject S01001, stage IV, 2 mg (dose escalation) QD) was 7.9%, the “Cases achieving SD” value ([5]; of 2 patients with nasopharyngeal squamous cell carcinoma) was 1 case and the “Target lesion reduction among SD cases” value ([6]; 4 SD cases of 5 patients with pulmonary squamous cell carcinoma) was “all of which showed target lesion reduction”. The “Maximum reduction in the target lesion” value ([6]; Subject S09009, stage IV, 4 mg QD continuous) was 10.7%, the “Cases achieving SD” value ([6]; of 5 patients with pulmonary squamous cell carcinoma) was 4 cases and the “Common (≥10%) adverse effects” value [7] was “proteinuria, hypertension, hypoalbuminemia, decreased platelet count, decreased leukocyte count, increased alanine aminotransferase, increased aspartate aminotransferase, hyperuricemia, rash, anemia and fatigue”. The “Overall safety” value [7] was “overall safe and controllable”, the “Severity of most adverse effects” value [7] was “grade 2 or below” and the “Solubility in buffer compared to compound A” value (Solubility experiment; Na2HPO4-citric acid buffer (pH 4.6)) was “better solubility in the buffer compared to compound A”.
For Fumarate, the Hygroscopicity [1] was 2.11. % and the Solubility (Solubility experiment) was 1300 µg/mL.
In the case of Maleate, the Hygroscopicity [1] is reported as 0.81%, the “Hygroscopicity (words)” value [1] is reported as “slightly hygroscopic” and the Solubility (Solubility experiment) is reported as 2000 µg/mL.
For Phosphate, the Hygroscopicity [1] was 3.75% and the Solubility (Solubility experiment) was 3500 µg/mL.
Molecule Tartrate has a Hygroscopicity [1] of 2.86%.
